# What was measured:
# Format in all cases: in vivo, rat
# SHR = experiment: Role of NO in the MAP response to constant Tempol infusion (L-NAME or norepinephrine pretreatment)
# SHR and WKY rats [1] = experiment: MAP and renal hemodynamics during bolus intravenous injection of Tempol in anesthetized rats; conditions: for Decrease in MAP: Tempol 72 μmol/kg IV; for RBF during Tempol: dose not specified (24 and 72 μmol/kg studied)
# Experimental: In the first group, the short-term actions of Tempol were determined in anesthetized rats. […] The following data was obtained:
# Materials and Methods. In Examples 3 to 6, groups of male SHR and WKY rats (200 to 300 g) were maintained on tap water and standard chow (Harlan-Teklad Inc.). […] In order to do this experiment, WKY (n=6) and SHR (n=6) were anesthetized with thiobutabarbital (100 mg/kg i.p., Inactin, Research Biochemicals International) and maintained at 37° C. on a servocontrolled heated rodent operating table. A tracheostomy was performed with polyethylene PE-240 tubing, and the left jugular vein and carotid artery were cannulated with PE-50 tubing. Intravenous infusion of 1% albumin dissolved in 0.154 M NaCl solution was infused at 2 mL/h i.v. to maintain an euvolemic state. A midline incision was made, and the left renal artery was isolated. A blood-flow probe was placed around the renal artery and connected to a transit-time blood flowmeter (1RB, Transonic Systems Inc.). We have previously shown that this method of measuring real-time changes in RBF is valid in the rat (Welch et al., 1995 Am. J. Physiol. 37: F175-F178).
# MAP was continuously recorded from the carotid artery using a Statham pressure transducer (model P23, Gould Instruments) and MACLab data acquisition program. After 60 minutes of equilibration, there was a basal period for measurement of MAP and RBF over 30 minutes.
# SHR and WKY rats [2] = experiment: MAP after 7 days of intraperitoneal Tempol; conditions: Tempol 250 mg/kg/day intraperitoneally for 7 days
# SHR and WKY rats [3] = experiment: Maximal TGF responses during retrograde microperfusion of Tempol into the macula densa/JGA (Series 6); conditions: for Percentage reduction in TGF normalized to the initial response: Tempol 10^−3 M retrograde; for PSF difference 0-40 nl·min^−1 (maximal TGF response) / PSF during LH perfusion at 0 nl·min^−1 / PSF during LH perfusion at 40 nl·min^−1: retrograde perfusion, ATF+Tempol 10^−3 M, mean ± SEM
# Experimental: Series 4. Effects of inhibition of bNOS on maximal TGF responses in SHR and WKY. These experiments further examined the SHR hypertension model and whether the enhanced TGF of the SHR kidney is due to a blunted generation of NO by bNOS in the macula densa or whether NOS inhibition is diminished in the SHR model. Groups of SHR and age-matched WKY rats were prepared for in vivo micropuncture, microperfusion, and TGF studies as described in detail previously. In brief, animals were anesthetized with thiobarbital (Inactin, 100 mg·kg^−1; Research Biochemicals, Inc., Natick, Mass.). A catheter was placed in a jugular vein for fluid infusion and in a femoral artery for recording of mean arterial pressure (MAP) from the electrically damped output of a pressure transducer (Statham, Inc.). A tracheotomy tube was inserted and the animals were allowed to breathe spontaneously. The left kidney was exposed by a flank incision, cleaned of connective tissue, and stabilized in a Lucite cup. This kidney was bathed in 0.154 M NaCl maintained at 37° C. After completion of surgery, rats were infused with a solution of 0.154 M NaCl and 1% albumin at 1.5 ml·h^−1 to maintain a euvolemic state. Micropuncture studies were begun after 60 min for stabilization.
# For orthograde microperfusion of the loop of Henle (LH), a micropipette (8 μm OD) containing artificial tubular fluid (ATF) stained with FD&C dye was inserted into a late proximal tubule. Injections of the colored ATF identified the nephron and the direction of flow. An immobile bone wax block was inserted into this micropuncture site via a micropipette (10-15 μm) and connected to a hydraulic drive (Trent Wells, Inc., LaJolla, Calif.) to halt tubular fluid flow. A perfusion micropipette (6-8 μm) containing ATF and test compounds or vehicle was inserted into the proximal tubule downstream from the wax block and connected to a nanoliter perfusion pump (WPI, Sarasota, Fla.). A pressure micropipette (1-2 μm) was inserted into the proximal tubule upstream from the wax block to measure proximal stop flow pressure (PSF). Changes in PSF are an index of changes in glomerular capillary hydraulic pressure (PGC). Measurements of PSF were made in each nephron during zero loop perfusion and during perfusion with ATF at 40 nl·min^−1, which produces a maximal TGF response, defined as the difference between PSF values recorded during perfusion of the loop with ATF at 0 and 40 nl·min^−1.
# Groups of SHR (n=5) and WKY rats (n=5) were prepared for studies of retrograde microperfusion into the macula densa. […] Therefore, these studies of TGF were conducted with retrograde microperfusion from the early distal (ED) tubule into the macula densa. After identifying the nephron with FD&C green, the last proximal convolution was vented and a wax block placed upstream. A micropipette (8-10 μm OD) was inserted into the ED tubule upstream from an oil droplet. The loop of Henle was perfused retrogradely with perfusate entering the macula densa segment directly at 0 and 20 nl·min^−1. This represents a maximal activation for TGF by retrograde perfusion. […] Therefore, this dose was used thereafter in the test animals (Dosage/kg would usually be lower in larger animals). Comparisons were made of maximum TGF responses obtained during perfusion of ATF+vehicle (ethanol) and ATF+Tempol.
# [4] = SHR, Tempol 4 mg/kg intravenously
# [5] = WKY, Tempol 4 mg/kg intravenously
smiles,measurement,setting,value
"CC1(C)CC(O)CC(C)(C)N1[O] [Tempol, 4-hydroxy-2,2,6,6-tetramethyl-1-piperidinyloxy]",Decrease in MAP,"SHR; SHR infused with norepinephrine, Tempol infusion",14%
same,MAP during Tempol infusion,"SHR; SHR infused with norepinephrine, Tempol infusion, P<0.05",161±7 mm Hg
same,MAP during Tempol infusion,"SHR; SHR pretreated with L-NAME, Tempol infusion 30 minutes, unchanged",186±4 mm Hg
same,MAP,"SHR; SHR, saline vehicle pretreatment, Tempol infusion 180 μmol·kg^−1·min^−1 (so in the source) for 30 minutes",121±17 mm Hg
same,Decrease in MAP,"SHR; SHR, saline vehicle pretreatment, Tempol infusion for 30 minutes, P<0.05",32%
same,MAP,"SHR and WKY rats [1]; SHR, Tempol 24 μmol/kg IV bolus",147±4 mm Hg
same,RVR,"SHR and WKY rats [1]; SHR, Tempol 72 μmol/kg",17±2 mm Hg·mL^−1·min^−1
same,MAP,"SHR and WKY rats [1]; SHR, Tempol 72 μmol/kg IV bolus",104±9 mm Hg
same,Decrease in MAP,"SHR and WKY rats [1]; SHR, P<0.05",28%
same,Decrease in RVR,"SHR and WKY rats [1]; SHR, Tempol 72 μmol/kg, P<0.05",29%
same,MAP,SHR and WKY rats [1]; [4],108±8 mm Hg
same,RVR,SHR and WKY rats [1]; [4],17±2 mm Hg/ml/min
same,MAP,"SHR and WKY rats [1]; SHR, Tempol 12 mg/kg intravenously",80±5 mm Hg
same,RBF during Tempol,SHR and WKY rats [1]; SHR,6.7 ± 0.8 mL/min
same,RVR,"SHR and WKY rats [1]; SHR, low-dose Tempol (24 μmol/kg)",24±3 mm Hg·mL^−1·min^−1
same,MAP,"SHR and WKY rats [1]; WKY, Tempol 24 μmol/kg IV bolus",114±5 mm Hg
same,RVR,"SHR and WKY rats [1]; WKY, Tempol 72 μmol/kg",15±1 mm Hg·mL^−1·min^−1
same,MAP,"SHR and WKY rats [1]; WKY, Tempol 72 μmol/kg IV bolus",96±6 mm Hg
same,Decrease in MAP,"SHR and WKY rats [1]; WKY, P<0.05",11%
same,MAP,SHR and WKY rats [1]; [5],98±6 mm Hg
same,RVR,SHR and WKY rats [1]; [5],15±1 mm Hg/ml/min
same,MAP,"SHR and WKY rats [1]; WKY, Tempol 12 mg/kg intravenously",99±7 mm Hg
same,RBF during Tempol,SHR and WKY rats [1]; WKY,6.6 ± 0.7 mL/min
same,RVR,"SHR and WKY rats [1]; WKY, low-dose Tempol (24 μmol/kg)",17±1 mm Hg·mL^−1·min^−1
same,MAP after treatment,"SHR and WKY rats [2]; SHR, from 133±2, p<0.01",120±3 mm Hg
same,Effect on MAP,SHR and WKY rats [2]; WKY,no effect
same,Percentage reduction in TGF normalized to the initial response,SHR and WKY rats [3]; SHR,−26±2%
same,PSF difference 0-40 nl·min^−1 (maximal TGF response),SHR and WKY rats [3]; SHR,8.5 ± 0.8 mm Hg
same,PSF during LH perfusion at 0 nl·min^−1,SHR and WKY rats [3]; SHR,40.8 ± 0.8 mm Hg
same,PSF during LH perfusion at 40 nl·min^−1,SHR and WKY rats [3]; SHR,32.1 ± 0.9 mm Hg
same,Percentage reduction in TGF normalized to the initial response,SHR and WKY rats [3]; WKY,−17±3%
same,PSF difference 0-40 nl·min^−1 (maximal TGF response),SHR and WKY rats [3]; WKY,6.7 ± 0.4 mm Hg
same,PSF during LH perfusion at 0 nl·min^−1,SHR and WKY rats [3]; WKY,34.7 ± 0.8 mm Hg
same,PSF during LH perfusion at 40 nl·min^−1,SHR and WKY rats [3]; WKY,28.0 ± 0.9 mm Hg
same,"Maximally effective dose (preliminary studies, effects reversible)",SHR and WKY rats [3]; retrograde microperfusion into the macula densa,10^−3 M
